According to ChEMBL document CHEMBL1132253, “Potent inhibition of influenza sialidase by a benzoic acid containing a 2-pyrrolidinone substituent” (J Med Chem, 1999):

Biological target: Neuraminidase (Influenza B virus (strain B/Lee/1940), UniProt P03474)
Experiment: In vitro inhibitory activity against B/Lee/40 Influenza B Neuraminidase.

First: CCC(CC)Nc1cc(C(=O)O)ccc1N1C(=O)CCC1(CO)CO
Second: N=C(N)Nc1cc(C(=O)O)ccc1N1C(=O)CCC1(CO)CO
The IC50 of the first is 13-fold higher: 104 µM for the first, 8 µM for the second. The second is the more potent here.

First: CC(=O)Nc1c(N=C(N)N)cc(C(=O)O)cc1N=C(N)N
Second: NCC1CCC(=O)N1c1ccc(C(=O)O)cc1N=C(N)N (stereo unspecified)
The IC50 of the first is 2-fold lower: 250 µM for the first, 500 µM for the second.

CCC(CC)Nc1cc(C(=O)O)ccc1N1CCCC1=O and O=C(O)c1ccc(N2C(=O)CCC2(CO)CO)cc1 cannot be ordered by IC50: > 5000 µM for the first, > 8000 µM for the second.
